# From PubChem BioAssay AID248 (DTP/NCI, 2004)
# Values joined by “and” are separate entries in the source; they are usually repeats but may differ in a detail not shown here. Identical values can stand only once. Inconclusive results and toxic doses are left out.
# System: L1210 leukemia ip in BDF1 mice, survival T/C
# Assay: NCI In Vivo Anticancer Drug Screen. Data for tumor model L1210 Leukemia (intraperitoneal) in B6D2F1 (BDF1) mice
# Details: endpoint: mean survival time, higher = longer survival
# Procedure, shortened: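 Tumor was transplanted into mice, which were then dosed with test compound or vehicle alone. Survival was recorded for each group, and the treated figure was expressed relative to the control figure.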
# [1] = dose: 100.0 mg/kg/injection, schedule: Q01DX009 (ip), vehicle: saline with Tween-80
# [2] = dose: 200.0 mg/kg/injection, schedule: Q01DX009 (ip), vehicle: saline with Tween-80
# [3] = dose: 200.0 mg/kg/injection, schedule: Q04DX003 (ip), vehicle: saline with Tween-80
# [4] = dose: 400.0 mg/kg/injection, schedule: Q04DX003 (ip), vehicle: saline with Tween-80
# [5] = dose: 100.0 mg/kg/injection, schedule: Q04DX002 (ip), vehicle: saline with Tween-80
# [6] = dose: 200.0 mg/kg/injection, schedule: Q04DX002 (ip), vehicle: saline with Tween-80
smiles,measurement,setting,value
O=C(NCCCNC(=O)Nc1ccc(C2=NCC(O)CN2)cc1)Nc1ccc(C2=NCC(O)CN2)cc1 (stereo not drawn),T/C,"dose: 30.7 mg/kg/injection, schedule: Q01DX015 (ip), vehicle: methylcellulose (MC)",104 % of control
same,T/C,"dose: 61.5 mg/kg/injection, schedule: Q01DX015 (ip), vehicle: methylcellulose (MC)",95 % of control
CCOc1ccc(Br)cc1C=O,T/C,[1],97 % of control
same,T/C,"dose: 100.0 mg/kg/injection, schedule: Q04DX003 (ip), vehicle: saline with Tween-80",97 % of control
same,T/C,[2],91 % of control
same,T/C,[3],97 % of control
same,T/C,"dose: 400.0 mg/kg/injection, schedule: Q01DX009 (ip), vehicle: saline with Tween-80",91 % of control
same,T/C,[4],101 % of control
CCNC(=S)NC1CCCCCCCCCCC1,T/C,[5],94 % of control
same,T/C,[6],87 % of control
O=C1CC(c2ccc(O)cc2)CC(=O)C1C(=O)Nc1ccccc1 (stereo not drawn),T/C,"dose: 100.0 mg/kg/injection, schedule: Q01DX001 (ip), vehicle: other",101 % of control
same,T/C,"dose: 200.0 mg/kg/injection, schedule: Q01DX001 (ip), vehicle: other",100 % of control
same,T/C,"dose: 400.0 mg/kg/injection, schedule: Q01DX001 (ip), vehicle: other",97 % of control
CCCN(C)/N=N/c1[nH]ncc1C(N)=O,T/C,"dose: 66.0 mg/kg/injection, schedule: Q01DX009 (ip), vehicle: saline with Tween-80",178 % of control
same,T/C,"dose: 100.0 mg/kg/injection, schedule: Q01DX001 (ip), vehicle: saline with Tween-80",113 % of control
same,T/C,[1],188 % of control
same,T/C,"dose: 200.0 mg/kg/injection, schedule: Q01DX001 (ip), vehicle: saline with Tween-80",115 % of control
same,T/C,[2],120 % of control
same,T/C,[3],116 % of control
same,T/C,"dose: 400.0 mg/kg/injection, schedule: Q01DX001 (ip), vehicle: saline with Tween-80",109 % of control
same,T/C,[4],94 % of control
O=[N+]([O-])c1cc(COc2ccc(Cl)c(Cl)c2)ccc1Cl,T/C,"dose: 100.0 mg/kg/injection, schedule: Q01DX009 (ip), vehicle: Klucel (hydroxypropylcellulose) (HPC)",95 % of control
same,T/C,"dose: 100.0 mg/kg/injection, schedule: Q04DX002 (ip), vehicle: Klucel (hydroxypropylcellulose) (HPC)",97 % of control and 98 % of control and 102 % of control
same,T/C,"dose: 200.0 mg/kg/injection, schedule: Q01DX009 (ip), vehicle: Klucel (hydroxypropylcellulose) (HPC)",93 % of control
same,T/C,"dose: 200.0 mg/kg/injection, schedule: Q04DX002 (ip), vehicle: Klucel (hydroxypropylcellulose) (HPC)",96 % of control and 97 % of control and 110 % of control
same,T/C,"dose: 200.0 mg/kg/injection, schedule: Q04DX002 (ip), vehicle: saline",102 % of control
same,T/C,"dose: 400.0 mg/kg/injection, schedule: Q01DX009 (ip), vehicle: Klucel (hydroxypropylcellulose) (HPC)",96 % of control
same,T/C,"dose: 400.0 mg/kg/injection, schedule: Q04DX002 (ip), vehicle: Klucel (hydroxypropylcellulose) (HPC)",93 % of control and 99 % of control and 103 % of control
same,T/C,"dose: 400.0 mg/kg/injection, schedule: Q04DX002 (ip), vehicle: saline",97 % of control
CCN=C(NCC)c1ccc(NC(=O)c2ccc(C(=O)Nc3ccc(C(=NCC)NCC)cc3)cc2)cc1,T/C,"dose: 7.5 mg/kg/injection, schedule: Q01DX010 (oral), vehicle: saline",98 % of control
same,T/C,"dose: 7.5 mg/kg/injection, schedule: Q01DX Z (ip), vehicle: saline",204 % of control
same,T/C,"dose: 15.0 mg/kg/injection, schedule: Q01DX010 (oral), vehicle: saline",95 % of control
same,T/C,"dose: 15.0 mg/kg/injection, schedule: Q01DX Z (ip), vehicle: saline",106 % of control and 109 % of control
same,T/C,"dose: 30.0 mg/kg/injection, schedule: Q01DX010 (oral), vehicle: saline",91 % of control
same,T/C,"dose: 125.0 mg/kg/injection, schedule: Q01DX Z (oral), vehicle: saline",98 % of control
same,T/C,"dose: 125.0 mg/kg/injection, schedule: Q## X010 (oral), vehicle: saline",108 % of control
same,T/C,"dose: 250.0 mg/kg/injection, schedule: Q01DX Z (oral), vehicle: saline",96 % of control
same,T/C,"dose: 250.0 mg/kg/injection, schedule: Q## X010 (oral), vehicle: saline",123 % of control
same,T/C,"dose: 500.0 mg/kg/injection, schedule: Q01DX Z (oral), vehicle: saline",109 % of control
O=C1c2cccc3cc([N+](=O)[O-])cc(c23)C(=O)N1CCCN(CCO)CCO,T/C,"dose: 12.5 mg/kg/injection, schedule: Q01DX009 (ip), vehicle: Klucel (hydroxypropylcellulose) (HPC)",104 % of control
same,T/C,"dose: 25.0 mg/kg/injection, schedule: Q01DX009 (ip), vehicle: Klucel (hydroxypropylcellulose) (HPC)",105 % of control
same,T/C,"dose: 50.0 mg/kg/injection, schedule: Q01DX009 (ip), vehicle: Klucel (hydroxypropylcellulose) (HPC)",91 % of control
S=P(c1ccccc1)(N1CC1)N1CC1,T/C,"dose: 25.0 mg/kg/injection, schedule: Q04DX002 (ip), vehicle: saline with Tween-80",110 % of control
same,T/C,"dose: 50.0 mg/kg/injection, schedule: Q01DX Z (ip), vehicle: saline",124 % of control
same,T/C,"dose: 50.0 mg/kg/injection, schedule: Q04DX002 (ip), vehicle: saline with Tween-80",103 % of control
same,T/C,"dose: 100.0 mg/kg/injection, schedule: Q01DX Z (ip), vehicle: saline",115 % of control
same,T/C,[5],115 % of control and 116 % of control
same,T/C,[6],92 % of control
